Laboratory results as given in patent US6579556B2, “Ambient stable beverage” (Lipton, division of Conopco, Inc., priority 2000, dated 2003).
Converted amounts (≈) assume the structure as drawn. Where two headings read alike, the source gives them in different places.

Key:
Format in all cases: cell-based
[1] = system: yeast Saccharomyces cerevisiae X2180-1B; assay: Ready to Drink tea experiments, yeast growth after heat + pasteurisation adjunct; conditions: 0-200 ppm, OD 600 nm at 14 days; for effect of heat+pasteurisation adjunct on yeast growth: Ready to Drink tea 0.14% tea pH 3.4, held at temperature 2 minutes; for effect of pasteurisation adjunct at low temperature on yeast growth: Ready to Drink tea 0.14% tea pH 3.4, low temperature
Experimental: Rows of 30 ml tubes containing 10 ml RTD tea, pH 3.4, were equilibrated at the required temperature for 7 minutes in a water bath, before inoculation with 10^4 cells/ml of the yeast Saccharomyces cerevisiae […]-1B. Tubes were held at temperature for 2 minutes before being cooled rapidly in cold water for 5 minutes. Tubes were then incubated for 14 days at 25° C. to allow surviving yeasts to grow out. At 14 days growth was measured by optical density at 600 nm in x11 diluted samples. […] Rows of 30 ml tubes containing 10 ml RTD tea, pH 3.4, were equilibrated at the required temperature for 7 minutes in a water bath, before inoculation with 10^4 cells/ml of the yeast Saccharomyces cerevisiae […]-1B. Tubes were held at temperature for 2 minutes before being cooled rapidly in cold water for 5 minutes. Tubes were then incubated for 14 days at 25° C. to allow surviving yeasts to grow out. At 14 days growth was measured by optical density at 600 nm in x11 diluted samples. […] Rows of 30 ml tubes containing 10 ml RTD tea, pH 3.4, were equilibrated at the required temperature for 7 minutes in a water bath, before inoculation with 10^4 cells/ml of the yeast Saccharomyces cerevisiae […]-1B. Tubes were held at temperature for 2 minutes before being cooled rapidly in cold water for 5 minutes. Tubes were then incubated for 14 days at 25° C. to allow surviving yeasts to grow out. At 14 days growth was measured by optical density at 600 nm in x11 diluted samples. […] Rows of 30 ml tubes containing 10 ml RTD tea, pH 3.4, were equilibrated at the required temperature for 7 minutes in a water bath, before inoculation with 10^4 cells/ml of the yeast Saccharomyces cerevisiae […]-1B. Tubes were held at temperature for 2 minutes before being cooled rapidly in cold water for 5 minutes. Tubes were then incubated for 14 days at 25° C. to allow surviving yeasts to grow out. At 14 days growth was measured by optical density at 600 nm in x11 diluted samples. […] Rows of 30 ml tubes containing 10 ml RTD tea, pH 3.4, were equilibrated at the required temperature for 7 minutes in a water bath, before inoculation with 10^4 cells/ml of the yeast Saccharomyces cerevisiae […]-1B. Tubes were held at temperature for 2 minutes before being cooled rapidly in cold water for 5 minutes. Tubes were then incubated for 14 days at 25° C. to allow surviving yeasts to grow out. At 14 days growth was measured by optical density at 600 nm in x11 diluted samples. […] Rows of 30 ml tubes containing 10 ml RTD tea, pH 3.4, were equilibrated at the required temperature for 7 minutes in a water bath, before inoculation with 10^4 cells/ml of the yeast Saccharomyces cerevisiae […]-1B. Tubes were held at temperature for 2 minutes before being cooled rapidly in cold water for 5 minutes. Tubes were then incubated for 14 days at 25° C. to allow surviving yeasts to grow out. At 14 days growth was measured by optical density at 600 nm in x11 diluted samples. […] Rows of 30 ml tubes containing 10 ml RTD tea, pH 3.4, were equilibrated at the required temperature for 7 minutes in a water bath, before inoculation with 10^4 cells/ml of the yeast Saccharomyces cerevisiae […]-1B. Tubes were held at temperature for 2 minutes before being cooled rapidly in cold water for 5 minutes. Tubes were then incubated for 14 days at 25° C. to allow surviving yeasts to grow out. At 14 days growth was measured by optical density at 600 nm in x11 diluted samples. […] Rows of 30 ml tubes containing 10 ml RTD tea, pH 3.4, were equilibrated at the required temperature for 7 minutes in a water bath, before inoculation with 10^4 cells/ml of the yeast Saccharomyces cerevisiae […]-1B. Tubes were held at temperature for 2 minutes before being cooled rapidly in cold water for 5 minutes. Tubes were then incubated for 14 days at 25° C. to allow surviving yeasts to grow out. At 14 days growth was measured by optical density at […] in x11 diluted samples.

[2] = system: yeast Saccharomyces cerevisiae X2180-1B; assay: Fungicidal activity / MIC at 50° C. versus 30° C., yeast survival in YEPD broth pH 3.4; conditions: for MIC: Saccharomyces cerevisiae, read-out: MIC50; for Importance: rating as pasteurisation adjunct
Experimental: In the table the minimum inhibitory concentration (MIC) is given for each compound as well as the molecular weight (M.W.), the logPoct and a rating of its importance. […] The logPoct, that is the logarithm of the partition coefficient of the relevant compound in octanol and thus a measure of its […], was determined using […]™ software from the CHEMOFFICE ULRA ENHANCED 2000™ software package (version 5.5) that is commercially available from CambridgeSoft.
(§1) YEPD contained glucose, 20 g/l, peptone 20 g/l and yeast extract 10 g/l. Rows of 30 ml tubes containing 10 ml YEPD, pH 3.4, were equilibrated at the required temperature for 7 minutes in a water bath, before inoculation with 10^4 cells/ml of the yeast Saccharomyces cerevisiae X2180-1B. Tubes were held at temperature for 10 minutes before being cooled rapidly in cold water for 5 minutes. Tubes were then incubated for 48 hours at 25° C. to allow surviving yeasts to grow out, and form discrete colonies.
as §1, §1, §1

[3] = system: bacteria, Gluconobacter sp. 222; assay: Bacteria experiments, growth after heat + pasteurisation adjunct; conditions: 0-100 ppm, growth measured visually at 14 days; for effect of heat+pasteurisation adjunct on bacteria: Ready to Drink tea or synthetic soft drink pH 3.4, 2 minutes at temperature; for effect of pasteurisation adjunct at low temperature on growth: Ready to Drink tea or synthetic soft drink pH 3.4, low temperature
Experimental: Rows of 30 ml tubes containing 10 ml soft drink, pH 3.4, were equilibrated at the required temperature for 7 minutes in a water bath, before inoculation with 10^4 cells/ml of the bacteria, Gluconobacter sp. 222. Tubes were held at temperature for 2 minutes before being cooled rapidly in cold water for 5 minutes. Tubes were then incubated for 14 days at 25° C. to allow surviving bacteria to grow out. At 14 days growth was measured visually.

[4] = minimum inhibitory concentration, 50° C.
[5] = minimum inhibitory concentration, 50° C., given as ppm

SMILES	effect of heat+pasteurisation adjunct on yeast growth [1]	effect of pasteurisation adjunct at low temperature on yeast growth [1]	MIC [2, 4]	Importance [2]	also measured
CC(=O)OC/C=C(\C)CCC=C(C)C [Geranyl acetate]	remarkable combined synergistic effect	little effect	1000 µM	High (High effects compounds, most preferred, generally showed at least a 5 fold decrease in MIC, minimum inhibitory concentration at 50 °C compared with 30° C.)	
CCCCCCCC=CC(=O)OCC [Ethyl 2-decenoate]	remarkable combined synergistic effect	little effect	1000 µM (≈ 198 µg/mL)	High (High effects compounds, most preferred, generally showed at least a 5 fold decrease in MIC, minimum inhibitory concentration at 50 °C compared with 30° C.)	
CCCCCCCCCCCCO [Lauric alcohol]	remarkable combined synergistic effect	little effect		High (High effects compounds, most preferred, generally showed at least a 5 fold decrease in MIC, minimum inhibitory concentration at 50 °C compared with 30° C.)	MIC50 [2, 4]: 0.1 mM (≈ 18.6 µg/mL); MIC50 [2, 5]: 18.6 ppm
CCCCCCCCCCCC=O [Lauric aldehyde]	remarkable combined synergistic effect	little effect		High (High effects compounds, most preferred, generally showed at least a 5 fold decrease in MIC, minimum inhibitory concentration at 50 °C compared with 30° C.)	MIC50 [2, 4]: 0.2 mM (≈ 36.9 µg/mL); MIC50 [2, 5]: 36 ppm
CCCCCCCCCCOC(C)=O [Decyl acetate]	remarkable combined synergistic effect	little effect	1000 µM	High (High effects compounds, most preferred, generally showed at least a 5 fold decrease in MIC, minimum inhibitory concentration at 50 °C compared with 30° C.)	fungicidal activity at 30° C. [2]: no fungicidal activity; fungicidal activity when heated to 50° C. ([2]; 50° C.): significant fungicidal activity; effect of heat+pasteurisation adjunct on bacteria [3]: remarkable combined synergistic effect; effect of pasteurisation adjunct at low temperature on growth [3]: little effect
CCCCCCCCCCCCCCO [Tetradecanol]			50000 µM (≈ 10700 µg/mL)	Mod	
CCCCCCOC(=O)CCCCC [Hexyl hexanoate]			30000 µM (≈ 6010 µg/mL)	High (High effects compounds, most preferred, generally showed at least a 5 fold decrease in MIC, minimum inhibitory concentration at 50 °C compared with 30° C.)	
CC(C)C(=O)OCCOc1ccccc1 [2-Phenoxylethyl isobutyrate]				High (High effects compounds, most preferred, generally showed at least a 5 fold decrease in MIC, minimum inhibitory concentration at 50 °C compared with 30° C.)	MIC [2]: 100 µM (≈ 20.8 µg/mL)
CCCCCOC(=O)CCCCC [Amyl hexanoate]			2000 µM (≈ 373 µg/mL)	High (High effects compounds, most preferred, generally showed at least a 5 fold decrease in MIC, minimum inhibitory concentration at 50 °C compared with 30° C.)	
CCCCCCCCCCCCCCCO [Pentadecanol]			75000 µM (≈ 17100 µg/mL)	Low	
CC(C)CCOC(=O)c1ccccc1O [Isoamyl salicylate]			15000 µM (≈ 3120 µg/mL)	Mod	
CCCCCCCCCCCC(=O)OCCC(C)C [Isoamyl laurate]				Low	
CCCCCCCCCCCC(=O)O [Lauric acid]	remarkable combined synergistic effect	little effect		High (High effects compounds, most preferred, generally showed at least a 5 fold decrease in MIC, minimum inhibitory concentration at 50 °C compared with 30° C.)	fungicidal activity at 30° C. [2]: no fungicidal activity; fungicidal activity when heated to 50° C. ([2]; 50° C.): significant fungicidal activity; effect of heat+pasteurisation adjunct on bacteria [3]: remarkable combined synergistic effect; effect of pasteurisation adjunct at low temperature on growth [3]: little effect
CC(=O)CC/C=C(\C)CCC=C(C)C [Geranylacetone]	remarkable combined synergistic effect	little effect	500 µM (≈ 97.2 µg/mL)	High (High effects compounds, most preferred, generally showed at least a 5 fold decrease in MIC, minimum inhibitory concentration at 50 °C compared with 30° C.)	
